# Reference: publication PMC3117942 (2011)
# Target: T1, RARγ (Homo sapiens, UniProt P13631)
# T1 sequence (P13631 185-419 limits assumed): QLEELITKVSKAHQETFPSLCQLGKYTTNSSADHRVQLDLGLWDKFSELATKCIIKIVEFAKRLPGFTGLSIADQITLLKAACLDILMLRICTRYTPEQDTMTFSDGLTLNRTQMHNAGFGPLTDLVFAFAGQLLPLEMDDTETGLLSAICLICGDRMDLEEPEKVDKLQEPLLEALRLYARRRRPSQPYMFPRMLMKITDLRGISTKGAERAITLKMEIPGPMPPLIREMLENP
# Test: Gal4-RARγ-LBD UAS-luciferase reporter in HEK293T, activation at […]
# Type: cell-based
# Conditions: hek293t cells
smiles,measurement,value
"CC1=C(/C=C/C(C)=C/C=C/C(C)=C/C(=O)O)C(C)(C)CCC1 [ATRA, all-trans retinoic acid]","Gal4-RARγ-LBD UAS-luciferase reporter in HEK293T, activation at 1 nM (2.1 fold)",2.1 fold
